{
  "source": "paper PMC6934184",
  "about": "“Selective DNA-PKcs inhibition extends the therapeutic index of localized radiotherapy and chemotherapy” (The Journal of Clinical Investigation, 2019)",
  "target": "T1, RET Y791F (Homo sapiens, UniProt P07949, Y791F)",
  "T1 construct": "purchased Thermo Fisher Scientific (Life Technologies) SelectScreen",
  "T1 sequence (P07949 29-1114 Y791F)": "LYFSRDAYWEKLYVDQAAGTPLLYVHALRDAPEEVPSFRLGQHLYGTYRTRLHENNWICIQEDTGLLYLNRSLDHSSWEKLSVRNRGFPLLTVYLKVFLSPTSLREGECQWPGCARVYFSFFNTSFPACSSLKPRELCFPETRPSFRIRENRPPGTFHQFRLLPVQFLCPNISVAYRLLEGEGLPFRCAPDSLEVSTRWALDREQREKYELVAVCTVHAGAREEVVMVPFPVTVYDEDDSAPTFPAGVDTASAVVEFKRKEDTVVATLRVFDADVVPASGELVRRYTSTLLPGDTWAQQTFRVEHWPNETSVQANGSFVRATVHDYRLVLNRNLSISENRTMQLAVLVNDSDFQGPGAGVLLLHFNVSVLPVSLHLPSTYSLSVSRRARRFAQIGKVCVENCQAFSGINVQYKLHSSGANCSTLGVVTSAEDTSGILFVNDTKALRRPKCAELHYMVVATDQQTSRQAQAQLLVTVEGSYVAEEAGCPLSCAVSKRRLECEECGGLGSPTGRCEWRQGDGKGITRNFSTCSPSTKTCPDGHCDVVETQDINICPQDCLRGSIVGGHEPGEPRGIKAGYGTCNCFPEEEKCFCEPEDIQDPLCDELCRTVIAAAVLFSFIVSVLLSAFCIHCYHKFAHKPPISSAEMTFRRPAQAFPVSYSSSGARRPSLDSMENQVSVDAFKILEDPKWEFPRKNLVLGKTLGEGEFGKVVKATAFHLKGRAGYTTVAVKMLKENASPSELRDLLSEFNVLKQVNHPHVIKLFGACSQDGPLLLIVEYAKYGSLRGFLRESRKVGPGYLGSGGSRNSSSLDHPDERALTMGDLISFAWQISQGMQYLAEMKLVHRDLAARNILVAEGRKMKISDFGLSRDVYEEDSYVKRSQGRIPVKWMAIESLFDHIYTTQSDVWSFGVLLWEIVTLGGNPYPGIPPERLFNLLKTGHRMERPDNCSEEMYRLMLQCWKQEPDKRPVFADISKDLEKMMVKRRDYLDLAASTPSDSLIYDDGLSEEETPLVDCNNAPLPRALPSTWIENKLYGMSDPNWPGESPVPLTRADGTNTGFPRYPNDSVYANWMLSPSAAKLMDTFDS",
  "experiment": "SelectScreen Z'LYTE",
  "assay_type": "biochemical",
  "procedure": "The in vitro kinase selectivity of NU5455 was determined using the SelectScreen Broad Assay Panel (Thermo Fisher Scientific) involving activity and binding assays (Supplemental Table 1). […] Class IA PI3Ks were measured using the p85α subunit.\nKinase [ATP] % Assay Kinase [ATP] % Assay Kinase [ATP] % Assay Kinase [ATP] % Assay […]\nRET Y791F Km app 9.2 Z PIK3CG (p110 gamma) Km app 2.9 A KIT D816H n/a -0.2 L TAOK2 (TAO1) Km app -5.1 Z […]\nSGK (SGK1) Km app 8.5 Z MAP4K2 (GCK) Km app 2.7 Z TLK2 n/a -0.3 L STK38 (NDR) n/a -5.9 L\nMERTK (cMER) Km app 8.3 Z CDK2/cyclin A Km app 2.7 Z TGFBR1 (ALK5) n/a -0.4 L MATK (HYL) Km app -6.3 Z\nFYN Km app 8.3 Z EPHA1 Km app 2.7 Z CLK3 Km app -0.5 Z ABL1 E255K Km app -6.6 Z\nTEC n/a 8.1 L CDK2/cyclin E1 n/a 2.7 L MAP3K14 (NIK) n/a -0.5 L STK17A (DRAK1) n/a -6.6 L\nKIT V654A n/a 8.1 L TESK2 n/a 2.7 L AKT3 (PKB gamma) Km app -0.5 Z JAK2 JH1 JH2 Km app -6.7 Z\nROS1 Km app 8.0 Z SPHK1 Km app 2.7 A MAP3K9 (MLK1) Km app -0.5 Z PRKACB (PRKAC beta) n/a -6.8 L\nFGFR3 K650E Km app 7.9 Z AMPK A2/B1/G1 Km app 2.6 Z IKBKB (IKK beta) Km app -0.6 Z PDGFRA (PDGFR alpha) Km app -6.8 Z\nRAF1 (cRAF) Y340D Y341D 100 7.9 Z DYRK3 Km app 2.6 Z CAMK2A (CaMKII alpha) Km app -0.6 Z NEK9 Km app -7.2 Z\nPI4KA (PI4K alpha) 10 7.8 A CSNK1D (CK1 delta) Km app 2.6 Z PRKCB1 (PKC beta I) Km app -0.7 Z PDK1 Km app -7.3 Z\nHIPK2 Km app 7.8 Z ACVR2A n/a 2.5 L TTK n/a -0.7 L RPS6KB1 (p70S6K) Km app -7.8 Z […]",
  "data": [
    {"smiles": "CN(C(=O)CN1CCOCC1)c1ccc2sc3c(-c4cccc5c(=O)cc(N6CC7CCC(C6)O7)oc45)cccc3c2c1", "note": "[NU5455]", "values": [
      {"measurement": "inhibition at 1 µM", "value": 9.2, "unit": "%"}
    ]}
  ]
}
